Results from patent US20120220564A1, “SELECTIVE CALCIUM CHANNEL MODULATORS” (Zalicus Pharmaceuticals Ltd., priority 2009, published 2012).

Assays:
α1H (CaV 3.2) = molecular target: T1, α1H (CaV 3.2) (Homo sapiens, UniProt O95180); assay: T-type calcium channel block, whole cell patch clamp; type: cell-based; details: HEK cells, mainly non-inactivated protocol; values above 10,000 nM represented as 10000
T1 construct: expressed in transfected cells; host or cells: HEK 293
In short: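 HEK293 cells stably expressing human T-type channels, whole-cell patch clamp; compounds in external solution with 0.1-0.01% DMSO, applied by gravity. Mainly non-inactivating protocol: holding −110 mV, 1 s pre-pulse −100 mV, 50 ms test pulse −40 mV (inactivated protocol uses ~−85 mV pre-pulse); IC50 reported.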

[1] = tested on: minimal muscular or neurological impairment (rotarod); assay: Mouse rotarod assay; type: in vivo, mice
Procedure: To assess a compound's undesirable side effects (toxicity), animals can be monitored for overt signs of impaired neurological or muscular function. In mice, the rotarod procedure (Dunham and Miya, J. Am. Pharmacol. Assoc. 46:208-209 (1957)) is used to disclose minimal muscular or neurological impairment (MMI). When a mouse is placed on a rod that rotates at a speed of 6 rpm, the animal can maintain its equilibrium for long periods of time. The animal is considered toxic if it falls off this rotating rod three times during a 1-min period.

[2] = tested on: Rat SNL tactile allodynia; assay: L5/L6 spinal nerve ligation (SNL) Chung pain model, tactile allodynia (von Frey); type: in vivo; details: for % Antiallodynia (Mean ± SD): 30 mg/kg PO, n = 7-8; for anti-allodynia effects: second repetition of the study, n=9
Description: The Spinal Nerve Ligation is an animal model representing peripheral nerve injury generating a neuropathic pain syndrome. In this model experimental animals develop the clinical symptoms of tactile allodynia and hyperalgesia. L5/L6 Spinal nerve ligation (SNL) injury was induced using the procedure of Kim and Chung (Kim et al., Pain 50:355-363 (1992)) in male Sprague-Dawley rats (Harlan; Indianapolis, Ind.) weighing 200 to 250 grams.
Anaesthesia was induced with 2% isofluorane in O2 at 2 L/min and maintained with 0.5% isofluorane in O2. Rats were then shaved and aseptically prepared for surgeries. A 2 cm paraspinal incision was made at the level of L4-S2. L4/L5 was exposed by removing the transverse process above the nerves with a small rongeur. The L5 spinal nerve is the larger of the two visible nerves below the transverse process and lies closest to the spine. The L6 spinal nerve is located beneath the corner of the slope bone. A home-made glass Chung rod was used to hook L5 or L6 and a pre-made slip knot of 4.0 silk suture was placed on the tip of the rod just above the nerve and pulled underneath to allow for the tight ligation. The L5 and L6 spinal nerves were tightly ligated distal to the dorsal root ganglion. The incision was closed, and the animals were allowed to recover for 5 days.
Sham control rats underwent the same operation and handling as the experimental animals, but without SNL.
Prior to initiating drug delivery, baseline behavioural testing data is obtained. At selected times after infusion of the Test or Control Article behavioural data can then be collected again.
The assessment of tactile allodynia consisted of measuring the withdrawal threshold of the paw ipsilateral to the site of nerve injury in response to probing with a series of calibrated von Frey filaments (innocuous stimuli). Animals were acclimated to the suspended wire-mesh cages for 30 min before testing. Each von Frey filament was applied perpendicularly to the plantar surface of the ligated paw of rats for 5 sec. A positive response was indicated by a sharp withdrawal of the paw. For rats, the first testing filament is 4.31. Measurements were taken before and after administration of test articles. […] The protocol was repeated until three changes in behaviour were determined (“up and down” method) (Chaplan et al., J. Neurosci. Methods 53:55-63 (1994)). The 50% paw withdrawal threshold was determined as (10^[Xf+kδ])/10,000, where Xf=the value of the last von Frey filament employed, k=Dixon value for the positive/negative pattern, and δ=the logarithmic difference between stimuli. The cut-off values for rats were no less than 0.2 g and no higher than 15 g (5.18 filament); for mice no less than 0.03 g and no higher than 2.34 g (4.56 filament). A significant drop of the paw withdrawal threshold compared to the pre-treatment baseline is considered tactile allodynia.

T1 sequence (O95180 whole entry): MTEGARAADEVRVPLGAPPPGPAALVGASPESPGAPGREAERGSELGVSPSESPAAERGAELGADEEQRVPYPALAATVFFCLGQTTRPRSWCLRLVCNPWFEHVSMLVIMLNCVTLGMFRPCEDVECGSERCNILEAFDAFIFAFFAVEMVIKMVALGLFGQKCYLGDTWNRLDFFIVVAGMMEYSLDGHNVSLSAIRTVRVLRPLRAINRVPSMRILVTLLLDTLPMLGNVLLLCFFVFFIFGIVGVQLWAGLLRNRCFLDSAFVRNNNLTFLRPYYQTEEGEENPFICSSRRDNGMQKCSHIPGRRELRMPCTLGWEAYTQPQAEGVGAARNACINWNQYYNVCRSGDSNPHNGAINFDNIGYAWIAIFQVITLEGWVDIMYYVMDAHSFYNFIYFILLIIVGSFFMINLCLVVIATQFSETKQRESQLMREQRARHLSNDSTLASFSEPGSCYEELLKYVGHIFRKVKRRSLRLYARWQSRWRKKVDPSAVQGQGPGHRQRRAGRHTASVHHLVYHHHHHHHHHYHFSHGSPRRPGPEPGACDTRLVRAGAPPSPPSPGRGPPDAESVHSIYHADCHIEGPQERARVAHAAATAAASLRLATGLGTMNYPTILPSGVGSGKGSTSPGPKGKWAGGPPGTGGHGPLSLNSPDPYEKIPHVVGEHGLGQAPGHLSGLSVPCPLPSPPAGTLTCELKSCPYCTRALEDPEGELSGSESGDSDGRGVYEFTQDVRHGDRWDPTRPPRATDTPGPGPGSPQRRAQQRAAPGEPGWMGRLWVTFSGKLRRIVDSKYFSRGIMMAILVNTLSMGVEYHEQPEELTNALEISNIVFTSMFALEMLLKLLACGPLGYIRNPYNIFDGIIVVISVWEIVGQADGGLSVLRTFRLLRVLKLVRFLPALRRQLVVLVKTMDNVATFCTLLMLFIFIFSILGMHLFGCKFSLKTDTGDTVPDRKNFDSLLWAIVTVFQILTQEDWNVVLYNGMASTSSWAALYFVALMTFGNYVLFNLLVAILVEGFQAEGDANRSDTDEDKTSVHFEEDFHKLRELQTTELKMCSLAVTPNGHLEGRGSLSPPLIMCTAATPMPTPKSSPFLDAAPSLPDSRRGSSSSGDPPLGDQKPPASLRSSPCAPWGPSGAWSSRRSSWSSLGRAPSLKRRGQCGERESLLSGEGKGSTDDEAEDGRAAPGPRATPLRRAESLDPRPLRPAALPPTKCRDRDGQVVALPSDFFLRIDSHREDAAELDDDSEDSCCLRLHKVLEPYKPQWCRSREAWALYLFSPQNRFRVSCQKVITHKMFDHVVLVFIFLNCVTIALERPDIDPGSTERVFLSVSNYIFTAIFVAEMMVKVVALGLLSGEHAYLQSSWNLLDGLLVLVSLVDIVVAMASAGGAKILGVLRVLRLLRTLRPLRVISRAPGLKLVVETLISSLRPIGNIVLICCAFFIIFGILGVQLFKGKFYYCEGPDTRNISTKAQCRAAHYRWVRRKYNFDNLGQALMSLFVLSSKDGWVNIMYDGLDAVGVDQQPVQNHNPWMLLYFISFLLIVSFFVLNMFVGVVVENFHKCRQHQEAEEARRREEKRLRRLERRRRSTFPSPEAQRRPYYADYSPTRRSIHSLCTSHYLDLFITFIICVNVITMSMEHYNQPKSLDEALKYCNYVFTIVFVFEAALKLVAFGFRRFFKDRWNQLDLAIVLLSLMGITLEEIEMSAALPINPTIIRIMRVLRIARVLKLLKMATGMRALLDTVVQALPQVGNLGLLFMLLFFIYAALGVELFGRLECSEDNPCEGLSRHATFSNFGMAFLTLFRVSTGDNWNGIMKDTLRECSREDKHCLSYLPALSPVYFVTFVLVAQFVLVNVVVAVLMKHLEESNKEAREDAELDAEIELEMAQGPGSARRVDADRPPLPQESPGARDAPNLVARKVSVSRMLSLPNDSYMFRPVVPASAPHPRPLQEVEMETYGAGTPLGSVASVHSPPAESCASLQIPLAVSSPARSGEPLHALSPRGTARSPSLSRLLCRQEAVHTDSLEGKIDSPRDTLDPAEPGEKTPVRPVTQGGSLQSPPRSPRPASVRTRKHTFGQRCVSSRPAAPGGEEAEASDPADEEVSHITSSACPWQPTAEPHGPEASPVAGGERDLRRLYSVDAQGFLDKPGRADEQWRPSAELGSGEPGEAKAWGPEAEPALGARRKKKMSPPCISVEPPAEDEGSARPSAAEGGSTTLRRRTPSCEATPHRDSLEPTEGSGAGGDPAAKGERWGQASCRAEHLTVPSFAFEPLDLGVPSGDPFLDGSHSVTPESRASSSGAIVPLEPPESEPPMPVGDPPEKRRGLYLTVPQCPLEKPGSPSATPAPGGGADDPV

| Compound | IC50 (α1H (CaV 3.2)) [nM] | Rotarod Assay (% impaired) ([1]; 0.25 hr) [%] | Rotarod Assay (% impaired) ([1]; 0.5 hr) [%] | Rotarod Assay (% impaired) ([1]; 1 hr) [%] | Rotarod Assay (% impaired) ([1]; 2 hr) [%] | Rotarod Assay (% impaired) ([1]; 4 hr) [%] | % Antiallodynia (Mean ± SD) ([2]; 1 h) [%] | % Antiallodynia (Mean ± SD) ([2]; 4 h) [%] | anti-allodynia effects ([2]; 1 hr) [%] | anti-allodynia effects ([2]; 2 hr) [%] | anti-allodynia effects ([2]; 4 hr) [%] | Rat SNL tactile allodynia (% antiallodynia) ([2]; 1 hr) [%] | Rat SNL tactile allodynia (% antiallodynia) ([2]; 2 hr) [%] | Rat SNL tactile allodynia (% antiallodynia) ([2]; 4 hr) [%] |
| --- | --- | --- | --- | --- | --- | --- | --- | --- | --- | --- | --- | --- | --- | --- |
| N[C@@H]1CCCC[C@H]1C(=O)N1CCC(CC(=O)Nc2cc(C(F)(F)F)cc(C(F)(F)F)c2)CC1 (racemic) [Compound 3, trans-2-(1-(2-aminocyclohexanecarbonyl)piperidin-4-yl)-N-(3,5-bis(trifluoromethyl)phenyl)acetamide] | 60 | 0 | 75 | 100 | 75 | 50 | 36 ± 19 | 4 ± 8 | 68±12 | 76±6 | 42±14 |  |  |  |
| N-(3,5- bis(trifluoromethyl) phenyl)-2-(1- (piperidine-3- carbonyl)piperidin-4- yl)acetamide [Compound 2] | 350 | 25 | 50 | 100 | 100 | 50 |  |  |  |  |  | 38 | 44 | 27 |
